Laboratory results as given in patent publication US5614504A, “Method of making inosine monophosphate derivatives and immunopotentiating uses thereof” (The University of South Florida, priority 1995, dated 1997).

Columns and labels:
[1] = system: human peripheral blood lymphocytes (HPBL); assay: Response of normal HPBL to PHA (tritiated thymidine incorporation); assay type: cell-based; settings: 0.1-100 μg/ml; FIG. 1
Method: In vitro: Both human peripheral blood lymphocytes (HPBL) and mouse spleen lymphocytes (MSL) were employed. […] For HPBL transformation, PHA and PWM were used at 0.5 μg/ml. For MSL transformation, Con A was used at 0.5 μg/ml, phytohemagglutinin (PHA, Murex Diagnostics, Atlanta, Ga.) at 0.5 μg/ml and lipopolysaccharide endotoxin (LPS, Sigma, St. Louis, Mo.) at 10 μg/ml.
They were cultured in microwell plates at 1.5×10^6 cells/ml of minimal essential media (MEM, Gibco Labs, Grand Island, N.Y.) with 5% fetal calf serum (FCS, Hyclone Labs, Logan, Utah) and tested for their proliferative response to mitogens as measured by incorporation of (^3 H) tritiated thymidine (New England Nuclear, Wilmington Del., […]; 2.5 μCi/ml) during a terminal pulse followed by liquid scintillation spectrometry.

[2] = system: anti-HBs; assay: Anti-HBs production in normal DBA/2 mice (EIA); assay type: in vivo; settings: for anti-HBs, Day 14 / anti-HBs, Day 21: 50 mg/kg
From the text: Different strains of mice, coded by Pre-S2 zone S-gene HBV for their immune responses for proteins place them in the following haplotype order (Benaceraf and McDevitt, 1972): H-2^b >H-2^d >H-2^s >H-2^k>H-2^f. […] Therefore, male DBA/2 mice weighing 16-18 grams were obtained from the Animal Laboratory, Academy of Medical Science, Russia, and were used in the examples set forth herein. This line of mice was chosen as they are poor responders to hepatitis B vaccine.
Serum specimens from immunized mice were tested for the presence of anti-HBs in an enzyme immunoassay (EIA) using the diagnostic kits of Roche Diagnostica as per the manufacturer's instructions. The anti-HBs EIA kit (Roche), has a sensitivity of <10 IU/1.
Antibody concentration was determined with the help of calibration curves designed on the basis of the results of anti-HBs detection in standard serum panel (Roche Diagnostica) with the concentrations, as follows: 10 IU/l; 50 IU/l; 100 IU/l and 150 IU/l. The results of the two experiments were used for the calculation of mean values.
HBsAg was administered at a dose of […] in 0.2 ml PBS (pH 7.4) twice with an interval of two weeks between injections.
A protected-IMP, MIMP, was introduced both orally or intraperitoneally at a dose of 50 mg/kg.
The results of anti-HBs detection in the control group of mice treated with HBsAg alone and in the groups treated with the combination of HBsAg and MIMP, as prepared in the examples, are presented in Table 9. The various vaccination schedules are provided in the following list.

[3] = scheme 3: HBsAg + MIMP i.p. simultaneously then MIMP per os, p < 0.01

Which “relative activity on HPBL response to PHA” value [1] does the source give for `COP(=O)(O)OC[C@H]1O[C@@H](n2cnc3c(=O)[nH]cnc32)[C@H](O)[C@@H]1O` [Me-IMP, Methyl-5'-inosine-monophosphate] here?
Its value is “more active”.

What about the “anti-HBs, Day 14” value ([2]; scheme 2: HBsAg + MIMP per os 30 minutes prior to vaccine) of the same compound?
The value was less than 10 IU/1.

What about the “anti-HBs, Day 21” value ([2]; scheme 2: HBsAg + MIMP per os 30 minutes prior to vaccine, 0.01 < p < 0.05) of the same compound?
The value was 370 IU/1.

And the “anti-HBs, Day 14” value [2, 3]?
Its value is 100 IU/1.

And the “anti-HBs, Day 21” value [2, 3]?
Its value is 610 IU/1.

And the “anti-HBs, Day 21” value ([2]; scheme 4: HBsAg + MIMP i.p. simultaneously, 0.01 < p < 0.05)?
Its value is 420 IU/1.

And the “anti-HBs, Day 14” value ([2]; scheme 4: HBsAg + MIMP i.p. simultaneously, p < 0.01)?
The value was 100 IU/1.

What about the “level of antibodies to HBsAg” value ([2]; single intraperitoneal or single oral dose of 50 mg/kg) of the same compound?
The value was “significant increase”.
